Data published in patent US6303621A, “Method for treating cancers using a diiodo thyronine analogue having no significant hormonal activity and a vinca alkaloid and compositions comprising the same” (priority 1999, dated 2001).
“Also recorded” adds a separate entry of the source.

Tests used:
[1] = Serum half-life and bioavailability of 14C-labeled DIME; assay type: in vivo; settings: mice
Experimental: Mice were orally dosed with 126 mg/kg 14C-labeled DIME (Compound 1). After dosing, blood sampling times were 15 and 30 minutes and 1, 2, 4, 6, 8 and 24 hours. Aliquots (50 μL) of blood were assayed in a liquid scintillation counter and data expressed as microgram-equivalents per mL. The blood level data were analyzed by the […] method (Micromath, Salt Lake City, Utah). Parallel groups of mice were dosed intravenously with 24.5 mg/kg 14C-labeled DIME and blood sampling times were 10, 20 and 30 minutes and 1, 2, 4, 6 and 8 hours.

[2] = tested on: microtubules; assay: Microtubule binding
[3] = tested on: tumor cells; assay: Tumor cell apoptosis and micronucleation; assay type: cell-based
[4] = tested on: biosynthetic pathways of DNA, RNA or proteins; assay: Metabolic action and biosynthetic pathways of DNA, RNA or proteins
[5] = tested on: DIME-tolerant cells (DR6, DR7); assay: Cell growth of DIME-tolerant cells; assay type: cell-based, human
Experimental: c. MDA-MB-231 human mammary cancer cells were cultured and treated as reported previously by Mendeleyev et al., International Journal of Oncology 10:689-695 (1997) and Zhen et al., International Journal of Oncology 10:689-695 (1997). For the assay of cell growth kinetics cells, were seeded into 2cm^2 wells (24-well plates) at a density of 8×10^3 /cm^2 at the time of seeding. Vincristine (or vinblastine) and DIME (or DIPE) were added from DMSO dilutions (1-2 μl/ 500 μl culture mediim) either from separate drug solutions or for the construction of median effect plot (FIG. 1) from a pre-made mixture of both drugs (e.g. 0.75 μM DIME+2 nM vincristine) and simultaneous dilutions thereof (Chou et al. Eur. J. Biochem. 115: 207-216 (1981)). The cultures were incubated at 37° C. for 4 days and growth rates, leading to near confluency in drug-free controls, were monitored by cell counting in a haemocytometer after detachment by trypsin treatment Mendeleyev et al., International Journal of Oncology 10:689-695 (1997) and Zhen et al., International Journal of Oncology 10:689-695 (1997). […]

[6] = tested on: MDA-MB-231 xenografts; assay: Inhibition of MDA-MB-231 xenografts in nude mice; assay type: in vivo, human mammary cancer xenograft in nude mice
Description: The ability of human tumors to grow as xenografts in athymic mice (e.g., nude mice) provides a useful in vivo model for studying the biological response to therapies for human tumors. Since the first successful xenotransplantation of human tumors into athymic mice (Rygaard et al., 1969, Acta Pathol. Microbial. Scand. 77:758-760), many different human tumor cell lines (e.g., mammary, lung, genitourinary, gastrointestinal, head and neck, glioblastoma, bone and malignant melanomas) have been successfully transplanted and grown into nude mice. Human mammary tumor cell lines, including MCF-7, ZR75-1 and MDA-MB-231, have been established as subcutaneous grafts in nude mice (Warri et al., 1991, Intl. J. Cancer 49:616-23; Ozzello et al., 1980, Eur. J. Cancer 16:553-559; Osbourne et al., 1985, Cancer Res. 45:584-590; Siebert et al., 1983, Cancer Res. 43:2223-2239).
MDA-MB-231 (human mammary cancer) cells were obtained from American Type Culture Collection (Rockville, Md.) and maintained in the recommended growth media. Twenty nude mice were each inoculated subcutaneously with MDA-MB-231 cells (10^6 cells/[…]). To one group often mice, DIME was administered by gavage (250 mg/kg, 10 mL/kg in corn oil) once […] per day, 5 days per week, for a total of 32 days. The other (control) group of ten mice was given administered vehicle only according to the same dosing schedule. Tumors were measured twice weekly using a Vernier caliper, and the mean tumor volume was determined at each time point. Comparisons between groups were made using an unpaired, two-tailed t-test and the results were analyzed using analysis of variance.

[7] = tested on: nontumorigenic cells; assay: DIME uptake / permeation in nontumor cells; assay type: cell-based; settings: versus malignant counterparts

Structure (SMILES): COC(=O)c1cc(I)c(Oc2ccc(OC)cc2)c(I)c1 [DIME, methyl 3,5-diiodo-4-(4'-methoxyphenoxy) benzoate]
- half-life (t1/2) in serum [1]: 2 to 2.5 h
- Binding to microtubules [2]: bind to microtubules
- Tumor cell apoptosis / micronucleation [3]: induce tumor cell apoptosis preceded by micronucleation
- Inhibition of biosynthetic pathways of DNA, RNA or proteins [4]: nor does it inhibit the biosynthetic pathways of DNA, RNA or proteins
- Metabolic action [4]: no metabolic action
- Doubling time of DIME-tolerant cells after removal of DIME ([5]; DIME removed): 40 to 45 h
- Doubling time of DIME-tolerant cells ([5]; in the presence of 1.5 μM DIME, cancer cells 20 hrs): 70 to 78 h
- Growth of mammary cancer xenografts (MDA-MB-231) ([6]; 250 mg/kg by gavage once daily, 5 days a week for 32 days, nude mice): significant reduction of malignant tumor growth
- MDA-MB-231 tumor volume, Day 14 ± SEM ([6]; DIME 250 mg/kg by gavage, 5 days per week, 32 days, control 284.6 ± 42.0, p = 0.06, in mm³ (unit assumed)): 172.0 ± 34.3
- MDA-MB-231 tumor volume, Day 21 ± SEM ([6]; DIME 250 mg/kg by gavage, control 622.2 ± 58.1, p = 0.02, in mm³ (unit assumed)): 285.7 ± 62.4
- MDA-MB-231 tumor volume, Day 32 ± SEM ([6]; DIME 250 mg/kg by gavage, control 1176.6 ± 222.4, p = 0.01, in mm³ (unit assumed)): 543.8
- % decrease (tumor volume), Day 14 ([6]; DIME 250 mg/kg vs control): 40%
- % decrease (tumor volume), Day 21 ([6]; DIME 250 mg/kg vs control): 54%
- % decrease (tumor volume), Day 28 ([6]; DIME 250 mg/kg vs control): 56%
- % decrease (tumor volume), Day 32 ([6]; DIME 250 mg/kg vs control): 54%
- DIME uptake / permeability of nontumor cells [7]: impermeable to DIME; also recorded: take up significantly less DIME
